Laboratory results taken from patent US20230225990A1, “DIMETHYL SULFONE FOR TREATMENT OF CHRONICALLY HEAT STRESSED POULTRY” (Evonik Operations GmbH, priority 2020, published 2023).
Marks after values point to notes of the source that are not given here.

Key:
[1] = test system: chronically heat stressed poultry; assay: Litter moisture; assay type: in vivo; conditions: control diet+0.05 wt.-% DMS; d-42
Source text: For this purpose, two treatments (T1: control diet, and T2: control diet+0.05 wt.-% DMS) were done with 13 replicate pens each and 10 birds per pen. Collection of litter was done at days 28 and 42 to determine litter moisture. The sampling of the litter was done in five different points in each pen (each corner and the centre of each pen) and then homogenized to compose the representative sample of the pen. […] Calculating was done according to the formula: […]

[2] = test system: male broilers subjected to chronic cyclic heat stress; assay: Parameters in blood of birds sampled at d-23, d-25 and d-39; assay type: in vivo, broiler chickens (Ross 308); conditions: for GSSG/GSH / Glutathione (GSH) / Oxidized glutathione (GSSG): erythrocytes; for Glutathione peroxidase / Heat shock protein 70 / Malondialdehyde / Super oxide dismutase: plasma; for Nitric oxide / T3 (triiodothyronine) / T3/T4 / T4 (thyroxine): serum
Protocol: Sampling of one bird per pen (with weight close to average weight of the pen) on d-23, d-25 and on d-39 (on d-25 and d-39, sampling starts after >3 h of heat stress that day; 108 birds in total) • malondialdehyde, HSP70 (Chicken Heat Shock Protein 70, Hsp-70 ELISA Kit) Cusabio Code CSB-E11196Ch), HSP90 (Chicken Heat Shock Protein 90, HSP-90 ELISA Kit; Cusabio Code CSB-E12873C), GPx, SOD in plasma; GSH/GSSG in erythrocytes; and T3, T4 and nitric oxide in serum • Breast muscle and liver: malondialdehyde, AOX (GPx, SOD), GSH/GSSG
For physiological measurements, time of sampling (representing the number of minutes between the beginning of heat stress and the precise moment of sampling of the bird that day), if appropriate, was included in the model as a covariable if significant as well. Orthogonal contrasts were applied to test for linear and quadratic effects upon incremental levels of DMS supplementation in the diet. Means are given as estimated marginal means (least square means). Means were separated using the Tukey post-hoc test. Differences were considered significant when p<0.05 and as a trend for significance when p<0.1.
Heat shock protein 70 and heat shock protein 90 were determined in plasma employing the competitive inhibition enzyme immunoassay technique (HSP70, Chicken Heat Shock Protein 70, Hsp-70 ELISA Kit; Cusabio Code CSB-E11196Ch) and the quantitative sandwich enzyme immunoassay technique (HSP90, Chicken Heat Shock Protein 90, HSP-90 ELISA Kit; Cusabio Code CSB-E12873C), respectively. Regarding HSP-90 very low absorbances were found and in most cases fell below the lowest standard dilution. Values were then typically less than 0.39 ng/mL, the minimum detectable dose as mentioned in the user manual. For that reason, no data for HSP-90 could be reported here. Opposite to that, HSP-70 worked properly and values were all above sensitivity of 0.125 ng/mL. No treatments effects on HSP-70 could be perceived on either sampling day, apart from a trend for linear reduction on d-23. […] It must be noted that large variation across samples was found on d-39. Thyroxine (T4) could not be detected on d-23, while higher values were found on d-25 and d-39. A trend for linear increase on d-39 by higher DMS dose was observed. […] It means that conversion efficiency was not altered by diet. Irrespective of treatment is the sharp reduction in circulating T3 levels as birds age and thus subjected for long period to heat stress. As indicated above, this can be regarded as an adaptation to reduce body metabolism and hitherto metabolic heat production, and apparently birds fed DMS seems to be less affected. Nitric oxide was not different across treatments at any sampling day. Further, interesting changes in malondialdehyde, a marker of lipid peroxidation, were found. […] The higher GSH in DMS-fed chickens thus promotes antioxidant function and redox homeostasis. However, no relation could be established between plasma malondialdehyde and erythrocyte glutathione (FIG. 17).

`CS(C)(=O)=O` [DMS, dimethyl sulfone] was tested, and the “Moisture content in the litter” value [1] was “clear reduction”, the GSSG/GSH ([2]; 0.1% DMS in diet (T2), d-23) was 0.015 and the “Glutathione (GSH)” value ([2]; 0.1% DMS in diet (T2), d-23) was 1.07 µmol/mL. The “Oxidized glutathione (GSSG)” value ([2]; 0.1% DMS in diet (T2), d-23) was 0.017 µmol/mL, the GSSG/GSH ([2]; 0.1% DMS in diet (T2), d-25) was 0.017^a and the “Glutathione (GSH)” value ([2]; 0.1% DMS in diet (T2), d-25) was 0.59 µmol/mL. The “Oxidized glutathione (GSSG)” value ([2]; 0.1% DMS in diet (T2), d-25) was 0.010 µmol/mL, the GSSG/GSH ([2]; 0.1% DMS in diet (T2), d-39) was 0.017 and the “Glutathione (GSH)” value ([2]; 0.1% DMS in diet (T2), d-39) was 0.64^ab μmol/mL. The “Oxidized glutathione (GSSG)” value ([2]; 0.1% DMS in diet (T2), d-39) was 0.011 µmol/mL, the Glutathione peroxidase ([2]; 0.1% DMS in diet (T2), d-23) was 0.82 U/mL and the “Heat shock protein 70” value ([2]; 0.1% DMS in diet (T2), d-23) was 1.69 ng/mL. For the same molecule, the Malondialdehyde ([2]; 0.1% DMS in diet (T2), d-23) was 14.4 nmol/mL, the Super oxide dismutase ([2]; 0.1% DMS in diet (T2), d-23) was 84.1 % inhibition and the Glutathione peroxidase ([2]; 0.1% DMS in diet (T2), d-25) was 0.84 U/mL. The “Heat shock protein 70” value ([2]; 0.1% DMS in diet (T2), d-25) was 1.07 ng/mL, the Malondialdehyde ([2]; 0.1% DMS in diet (T2), d-25) was 14.3 nmol/mL and the Super oxide dismutase ([2]; 0.1% DMS in diet (T2), d-25) was 81.3 % inhibition. The Glutathione peroxidase ([2]; 0.1% DMS in diet (T2), d-39) was 0.97 U/mL, the “Heat shock protein 70” value ([2]; 0.1% DMS in diet (T2), d-39) was 2.77 ng/mL and the Malondialdehyde ([2]; 0.1% DMS in diet (T2), d-39) was 15.7 nmol/mL. For the same molecule, the Super oxide dismutase ([2]; 0.1% DMS in diet (T2), d-39) was 79.5 % inhibition, the Nitric oxide ([2]; 0.1% DMS in diet (T2), d-23) was 6.02 µmol/L and the “T3 (triiodothyronine)” value ([2]; 0.1% DMS in diet (T2), d-23) was 2.43^a μg/L. The Nitric oxide ([2]; 0.1% DMS in diet (T2), d-25) was 4.31 µmol/L, the “T3 (triiodothyronine)” value ([2]; 0.1% DMS in diet (T2), d-25) was 1.74 µg/L and the T3/T4 ([2]; 0.1% DMS in diet (T2), d-25) was 0.342. For the same molecule, the “T4 (thyroxine)” value ([2]; 0.1% DMS in diet (T2), d-25) was 0.53 µg/dL, the Nitric oxide ([2]; 0.1% DMS in diet (T2), d-39) was 3.84 µmol/L and the “T3 (triiodothyronine)” value ([2]; 0.1% DMS in diet (T2), d-39) was 1.10 µg/L. For the same molecule, the T3/T4 ([2]; 0.1% DMS in diet (T2), d-39) was 0.193, the “T4 (thyroxine)” value ([2]; 0.1% DMS in diet (T2), d-39) was 0.60 µg/dL and the GSSG/GSH ([2]; 0.2% DMS in diet (T3), d-23) was 0.018. The “Glutathione (GSH)” value ([2]; 0.2% DMS in diet (T3), d-23) was 1.25 µmol/mL, the “Oxidized glutathione (GSSG)” value ([2]; 0.2% DMS in diet (T3), d-23) was 0.023 µmol/mL and the GSSG/GSH ([2]; 0.2% DMS in diet (T3), d-25) was 0.013^b. The “Glutathione (GSH)” value ([2]; 0.2% DMS in diet (T3), d-25) was 0.70 µmol/mL, the “Oxidized glutathione (GSSG)” value ([2]; 0.2% DMS in diet (T3), d-25) was 0.009 µmol/mL and the GSSG/GSH ([2]; 0.2% DMS in diet (T3), d-39) was 0.015. For the same molecule, the “Glutathione (GSH)” value ([2]; 0.2% DMS in diet (T3), d-39) was 0.67^a μmol/mL, the “Oxidized glutathione (GSSG)” value ([2]; 0.2% DMS in diet (T3), d-39) was 0.010 µmol/mL and the Glutathione peroxidase ([2]; 0.2% DMS in diet (T3), d-23) was 0.92 U/mL. The “Heat shock protein 70” value ([2]; 0.2% DMS in diet (T3), d-23) was 1.00 ng/mL, the Malondialdehyde ([2]; 0.2% DMS in diet (T3), d-23) was 14.2 nmol/mL and the Super oxide dismutase ([2]; 0.2% DMS in diet (T3), d-23) was 80.4 % inhibition. For the same molecule, the Glutathione peroxidase ([2]; 0.2% DMS in diet (T3), d-25) was 0.86 U/mL, the “Heat shock protein 70” value ([2]; 0.2% DMS in diet (T3), d-25) was 1.08 ng/mL and the Malondialdehyde ([2]; 0.2% DMS in diet (T3), d-25) was 13.2 nmol/mL. For the same molecule, the Super oxide dismutase ([2]; 0.2% DMS in diet (T3), d-25) was 84.1 % inhibition, the Glutathione peroxidase ([2]; 0.2% DMS in diet (T3), d-39) was 1.09 U/mL and the “Heat shock protein 70” value ([2]; 0.2% DMS in diet (T3), d-39) was 4.23 ng/mL. For the same molecule, the Malondialdehyde ([2]; 0.2% DMS in diet (T3), d-39) was 14.9 nmol/mL, the Super oxide dismutase ([2]; 0.2% DMS in diet (T3), d-39) was 87.1 % inhibition and the Nitric oxide ([2]; 0.2% DMS in diet (T3), d-23) was 6.06 µmol/L. For the same molecule, the “T3 (triiodothyronine)” value ([2]; 0.2% DMS in diet (T3), d-23) was 2.06^b μg/L, the Nitric oxide ([2]; 0.2% DMS in diet (T3), d-25) was 4.48 µmol/L and the “T3 (triiodothyronine)” value ([2]; 0.2% DMS in diet (T3), d-25) was 1.72 µg/L. For the same molecule, the T3/T4 ([2]; 0.2% DMS in diet (T3), d-25) was 0.351, the “T4 (thyroxine)” value ([2]; 0.2% DMS in diet (T3), d-25) was 0.50 µg/dL and the Nitric oxide ([2]; 0.2% DMS in diet (T3), d-39) was 3.14 µmol/L. For the same molecule, the “T3 (triiodothyronine)” value ([2]; 0.2% DMS in diet (T3), d-39) was 1.12 µg/L, the T3/T4 ([2]; 0.2% DMS in diet (T3), d-39) was 0.180 and the “T4 (thyroxine)” value ([2]; 0.2% DMS in diet (T3), d-39) was 0.63 µg/dL.
